Legend:
IL-18 levels in saliva = assay: IL-18 levels in human saliva after 14 days of dosing; format: in vivo; conditions: human subjects
Method: To examine the dose effects of COMPOUND NO. 1 on the IL-18 levels, subjects were treated with 0, 100, 600 mg of COMPOUND NO. 1 for 14 days and the saliva samples were collected. IL-18 levels in the samples were measured by ELISA as described above. […] 1 at 600 mg as compared to the placebo group (FIG. 8). The IL-18 levels were similar in the placebo group and the subjects treated with COMPOUND NO. 1 at 100 mg.

other serine proteases = conditions: cited from earlier work
[1] = biological target: T1, recombinant human chymase (Homo sapiens, UniProt P23946); assay: reversal of chymase-induced decrease of IL-18 levels in human saliva (ELISA); format: biochemical; conditions: 37° C.; for dose-dependent reversal of chymase-induced decrease of IL-18 levels: 0-10,000 nM compound, human saliva; for dose-dependent reversal of chymase-induced decrease of IL-18 levels / IC50: 80 nM chymase, 1 hr; for IC50: n=3, ELISA, read-out: IC50 for reversal of chymase-induced IL-18 reduction; for reversal of chymase-induced reduction of IL-18 levels: chymase 2 μg/ml, COMPOUND No. 3 1 μM or chymostatin 3 μg/ml, 1 h
T1 construct: made in house
T1 sequence (P23946 22-247): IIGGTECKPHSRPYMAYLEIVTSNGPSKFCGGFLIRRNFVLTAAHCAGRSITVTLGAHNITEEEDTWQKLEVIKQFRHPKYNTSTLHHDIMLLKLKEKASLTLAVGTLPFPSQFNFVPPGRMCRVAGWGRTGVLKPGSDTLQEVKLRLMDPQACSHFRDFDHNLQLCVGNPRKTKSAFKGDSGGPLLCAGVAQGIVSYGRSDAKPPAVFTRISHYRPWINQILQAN
Method: (§1) The digestion was measured using the enzyme-linked immunosorbent assay (ELISA) kit (R&D Systems). […] As the ELISA detection provided quantitative measurement and high-throughput screening capacity, it was used for the following experiments.
Next, activities of the recombinant chymase and COMPOUND NO. 3 were examined with endogenous IL-18.
The dose effects of the chymase inhibitors on IL-18 levels were also examined. […] The IL-18 levels were measured using ELISA as described above.
Next, the effects of various serine proteases and inhibitors on IL-18 levels were examined.

[2] = test system: endogenous chymase activity and other proteases activity in saliva samples; assay: IL-18 levels in saliva samples incubated with protease inhibitors, no added chymase (ELISA); format: biochemical, human; conditions: 37° C., 1 hour
Method: To determine the effects of additional protease inhibitors on the endogenous IL-18 levels, the pan protease inhibitors and/or COMPOUND No. 3 were incubated with saliva samples at 37° C. for 1 hour. […] Ten μM of COMPOUND NO.

proteinase 3 = biological target: T2, proteinase 3 (Homo sapiens, UniProt P24158); assay: reversal of proteinase 3-induced reduction of IL-18 in saliva (ELISA); format: biochemical; conditions: proteinase 3 2 μg/ml + compound 1 μM; 37° C., 1 h
T2 sequence (P24158 28-248): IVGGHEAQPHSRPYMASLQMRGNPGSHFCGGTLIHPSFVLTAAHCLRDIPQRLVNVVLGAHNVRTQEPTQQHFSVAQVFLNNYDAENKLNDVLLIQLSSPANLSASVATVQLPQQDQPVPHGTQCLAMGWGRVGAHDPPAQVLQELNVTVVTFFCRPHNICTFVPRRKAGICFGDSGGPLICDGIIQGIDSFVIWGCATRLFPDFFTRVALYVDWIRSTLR
Method: (§2) Next, the effects of various serine proteases and inhibitors on IL-18 levels were examined. The saliva samples were incubated with vehicle (DMSO/PBS), chymase (2 μg/ml), COMPOUND No. 3 (1 μM), chymase (2 μg/ml)+COMPOUND No. 3 (1 μM), chymostatin (3 μg/ml), chymase (2 μg/ml)+chymostatin (3 μg/ml), cathepsin G (2 μg/ml), cathepsin G (2 μg/ml)+COMPOUND No. 3 (1 μM), elastase (0.5 μg/ml), elastase (0.5 μg/ml)+COMPOUND No. 3 (1 μM), proteinase 3 (2 μg/ml), proteinase 3 (2 μg/ml)+COMPOUND No. 3 (1 μM), tryptase (1 μg/ml), or tryptase (1 μg/ml)+COMPOUND 3 (1 μM) at 37° C. for 1 h. […] In contrast, cathepsin G and elastase had no effect on IL-18 levels. […] However, the reduction of IL-18 by these two enzymes was not reversed by COMPOUND No. 3.

tryptase = assay: reversal of tryptase-induced reduction of IL-18 in saliva (ELISA); format: biochemical; conditions: tryptase 1 μg/ml + compound 1 μM; 37° C., 1 h
Method: as §2

endogenous IL-18 = assay: effect of serine proteases on endogenous IL-18 levels in saliva samples (ELISA); format: biochemical, human; conditions: 37° C.; for effect of serine protease on IL-18 levels: saliva, 1 h, chymase 2, cathepsin G 2, elastase 0.5, proteinase 3 2, tryptase 1 μg/ml
Method: Next, activities of the recombinant chymase and COMPOUND NO. 3 were examined with endogenous IL-18. One ml of saliva samples were collected from six subjects and incubated with vehicle (DMSO/PBS), chymase (80 nM), and chymase+COMPOUND No. 3 (1 μM) at 37° C. for 3 hr.
To determine the dose effects of the recombinant chymase on IL-18 levels, 1-300 nM of the recombinant chymase were incubated with saliva samples at 37° C. for 1 hr.
as §2

[3] = test system: recombinant mature human IL-18; assay: cleavage of recombinant mature human IL-18 by chymase (Western blot, ELISA); format: biochemical; conditions: 37° C.
Method: A recombinant human chymase was generated according to Kervinen et al. (2008). A hundred ng of the recombinant mature human IL-18 (rIL-18, R&D Systems, 614 McKinley Place NE, Minneapolis, Minn. 55413) was incubated with the recombinant chymase (w/w 1:25) in PBS at 37° C. for various time points. The digestion products were separated on a 4-12% gradient gel. Western blot analysis was done with a specific monoclonal antibody against human IL-18. […] The exact cleavage sites were not clear. Without being bound to any theory, the mature IL-18 may be cleaved by the recombinant human chymase into the ˜16 kD fragment which may be further degraded into the ˜12 kD fragment. […] In addition, the chymase-induced cleavage of rIL-18 was both time (FIG. 1A) and dose dependent (FIG. 1B).
as §1

In the case of `CP(=O)(O)C(C(=O)N/C=C/c1ccc(F)c(F)c1)c1csc2ccc(Cl)cc12` (stereo not shown) [COMPOUND NO. 1], the “IL-18 levels in saliva compared to the placebo group, 100 mg” value (IL-18 levels in saliva; 100 mg for 14 days) is listed as “similar”, the “IL-18 levels in saliva compared to the placebo group, 600 mg” value (IL-18 levels in saliva; 600 mg for 14 days, p<0.03) is listed as “significant increase” and the “cross activity with other serine proteases” value (other serine proteases) is listed as “little or no cross activity”.

For `CC(C)OC(=O)OCOP(=O)(O)C(C(=O)N/C=C/c1cc(Cl)cc(Cl)c1)c1csc2ccc(Cl)cc12` (stereo not shown) [COMPOUND NO. 2], the “dose-dependent reversal of chymase-induced decrease of IL-18 levels” value [1] was “dose-dependently reversed” and the IC50 [1] was 1460 ± 563 nM.

For `O=C(N/C=C/c1cc(Cl)cc(Cl)c1)C(c1csc2ccc(Cl)cc12)P(=O)(O)O` (stereo not shown) [COMPOUND NO. 3], the “dose-dependent reversal of chymase-induced decrease of IL-18 levels” value [1] was “dose-dependently reversed”, the IC50 [1] was 3600 ± 928 nM and the “reversal of chymase-induced decrease of IL-18 levels, subjects 1-3 and 6” value ([1]; chymase 80 nM + compound 1 μM, 3 hr, subjects 1-3 and 6) was “reversed completely”. The “reversal of chymase-induced decrease of IL-18 levels, subjects 4 and 5” value ([1]; chymase 80 nM + compound 1 μM, 3 hr, subjects 4 and 5) was “reverted to a large degree”, the “reversal of chymase-induced reduction of IL-18 levels” value [1] was “reversed this reduction” and the “reversal of chymase-induced decrease of IL-18 levels” value ([1]; saliva of six subjects, chymase 80 nM + compound 1 μM, 3 hr) was “reversed or prevented”. For the same molecule, the “reversal of the decrease in IL-18 levels in incubated saliva” value ([2]; 1 or 10 μM) was “reversed some of the decrease”, the “increase of IL-18 levels at 10 μM compared with 1 μM” value [2] was “almost two fold” and the “reversal of proteinase 3-induced reduction of IL-18” value (proteinase 3) was “not reversed”. For the same molecule, the “reversal of tryptase-induced reduction of IL-18” value (tryptase) was “not reversed”.

In the case of `CC(C)C[C@H](NC(=O)[C@@H](NC(=O)N[C@@H](Cc1ccccc1)C(=O)O)[C@@H]1CCN=C(N)N1)C(=O)N[C@H](C=O)Cc1ccccc1` [chymostatin, reference compound], the “reversal of chymase-induced reduction of IL-18 levels” value [1] is reported as “reversed the reduction”.

In the case of elastase, the “effect of serine protease on IL-18 levels” value (shortened to “effect of serine protease”) (endogenous IL-18) is reported as “no effect”.

B1: recombinant chymase: recombinant human chymase generated according to Kervinen et al. (2008) (protein, UniProt P23946 22-247, looked up)
Chymase: IIGGTECKPHSRPYMAYLEIVTSNGPSKFCGGFLIRRNFVLTAAHCAGRSITVTLGAHNITEEEDTWQKLEVIKQFRHPKYNTSTLHHDIMLLKLKEKASLTLAVGTLPFPSQFNFVPPGRMCRVAGWGRTGVLKPGSDTLQEVKLRLMDPQACSHFRDFDHNLQLCVGNPRKTKSAFKGDSGGPLLCAGVAQGIVSYGRSDAKPPAVFTRISHYRPWINQILQAN
For B1, the “rIL-18 immunoreactivity or levels in the presence of chymase, PBS” value ([3]; 80 nM chymase, 4 mg/ml rIL-18, PBS, 1.5 h, without chymase ~4000) was about 1300 ng/mL, the “rIL-18 immunoreactivity or levels in the presence of chymase, saliva” value ([3]; 80 nM chymase, 4 mg/ml rIL-18, saliva, 1.5 h, without chymase ~3,000) was ~1,000 ng/ml and the “cleavage of mature human IL-18 (Western blot)” value ([3]; 100 ng rIL-18, chymase w/w 1:25, PBS, fragments ~16 and ~12 kD) was “able to cleave”. For the same molecule, the EC50 (endogenous IL-18; 1-300 nM chymase in saliva samples, 1 hr, n=3) was 60.4 ± 15.2 nM, the “effect on immunoreactivity or levels of endogenous IL-18” value (endogenous IL-18; chymase 80 nM, saliva of six subjects, 3 hr) was “decrease” and the “effect of serine protease” value (endogenous IL-18) was “reduced”.

B2: cathepsin G: serine protease (protein, UniProt P08311 21-244, looked up)
Cathepsin G: IIGGRESRPHSRPYMAYLQIQSPAGQSRCGGFLVREDFVLTAAHCWGSNINVTLGAHNIQRRENTQQHITARRAIRHPQYNQRTIQNDIMLLQLSRRVRRNRNVNPVALPRAQEGLRPGTLCTVAGWGRVSMRRGTDTLREVQLRVQRDRQCLRIFGSYDPRRQICVGDRRERKAAFKGDSGGPLLCNNVAHGIVSYGKSSGVPPEVFTRVSSFLPWIRTTMRS
In the case of B2, the “effect of serine protease” value (endogenous IL-18) is reported as “no effect”.

B3: Proteinase 3: serine protease (protein, UniProt P24158 28-248, looked up)
Myeloblastin: IVGGHEAQPHSRPYMASLQMRGNPGSHFCGGTLIHPSFVLTAAHCLRDIPQRLVNVVLGAHNVRTQEPTQQHFSVAQVFLNNYDAENKLNDVLLIQLSSPANLSASVATVQLPQQDQPVPHGTQCLAMGWGRVGAHDPPAQVLQELNVTVVTFFCRPHNICTFVPRRKAGICFGDSGGPLICDGIIQGIDSFVIWGCATRLFPDFFTRVALYVDWIRSTLR
In the case of B3, the “effect of serine protease” value (endogenous IL-18) is reported as “reduced IL-18 levels significantly”.

Reference: US20100003712A1, “BIOMARKER FOR ASSESSING RESPONSE TO CHYMASE TREATMENT” (priority 2008, published 2010)
